Test systems include SK-MEL-2 melanoma; SK-OV-3 ovarian; OVCAR-5 ovarian; SW-620 colon; RXF 393 renal; COLO 205 colon; SN12C renal; TK-10 renal; HCT-116 colon; MOLT-4 leukemia.
Holding throughout (assay): DTP human tumour cell line panel, 48 h

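Results reflect a 48-hour exposure of cells in 96-well plates to compound at five concentrations. GI50: concentration for 50% inhibition of growth. TGI: total growth inhibition.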

Consider `Nc1nccc(C#Cc2cncnc2Nc2ccc(OCc3cccc(F)c3)c(Cl)c2)n1`, for which the GI50 is 4.98 µM in the experiment on SK-MEL-2 melanoma; 7.22 µM in the experiment with SK-OV-3 ovarian; 5.45 µM in the experiment with OVCAR-5 ovarian; 3 µM in the experiment with SW-620 colon; 4.02 µM with RXF 393 renal; 3.96 µM in the experiment with COLO 205 colon. For the same molecule, the GI50 with SN12C renal was 3.22 µM; in the experiment on TK-10 renal it was 4.5 µM; in the experiment on HCT-116 colon, 3480 nM; in the experiment with MOLT-4 leukemia, 5.69 µM. In addition, the TGI in the experiment with SK-MEL-2 melanoma was 9.34 µM; in the experiment on SK-OV-3 ovarian it was > 22.5 µM; in the experiment with OVCAR-5 ovarian, 11.3 µM; in the experiment with SW-620 colon, 7.66 µM; in the experiment with RXF 393 renal, 8.9 µM; in the experiment on COLO 205 colon, 8.6 µM. Moreover, the TGI in the experiment on SN12C renal was found to be 9.98 µM; with TK-10 renal it was 8.22 µM; in the experiment with HCT-116 colon, 7.43 µM; with MOLT-4 leukemia it was 21.5 µM.
Turning to `COc1ccc(Nc2nc3c(N)cc(C(F)(F)F)cc3nc2-c2ccccc2)cc1`, the TGI was > 100 µM with SK-MEL-2 melanoma; > 100 µM in the experiment with SK-OV-3 ovarian; > 100 µM with OVCAR-5 ovarian; > 100 µM in the experiment on SW-620 colon; 68.2 µM in the experiment with RXF 393 renal; > 100 µM with COLO 205 colon. For the same molecule, the TGI in the experiment with SN12C renal, in the experiment with TK-10 renal, in the experiment with HCT-116 colon and in the experiment with MOLT-4 leukemia was > 100 µM each time.
Turning to `CN(C)c1ccc(N=C(C#N)c2nc(N)nc(N3CCOCC3)n2)cc1`, the GI50 was > 100 µM in the experiment with SK-MEL-2 melanoma; 66.2 µM with SK-OV-3 ovarian; > 100 µM in the experiment with OVCAR-5 ovarian; > 100 µM with SW-620 colon; 27.5 µM in the experiment with RXF 393 renal; > 100 µM in the experiment on COLO 205 colon. Moreover, the values for the GI50 in the experiment with SN12C renal, in the experiment with TK-10 renal and with MOLT-4 leukemia were 28.8 µM, 23 µM and 60.8 µM, respectively. Moreover, the concentration for total growth inhibition (TGI) in the experiment with SK-MEL-2 melanoma was > 100 µM; in the experiment on SK-OV-3 ovarian it was > 100 µM; in the experiment on OVCAR-5 ovarian it was > 100 µM; in the experiment on SW-620 colon, > 100 µM; in the experiment on RXF 393 renal it was 70.1 µM; in the experiment with COLO 205 colon, > 100 µM. The concentration for total growth inhibition (TGI) in the experiment with SN12C renal was 98.5 µM; in the experiment on TK-10 renal, 63.6 µM; in the experiment with MOLT-4 leukemia, > 100 µM.
For the molecule `Clc1ccc(C2=NN(c3ccccc3)C3c4cc(Br)ccc4OCC23)cc1` (stereo not drawn), the total growth inhibition concentration (TGI) with SK-MEL-2 melanoma, with SK-OV-3 ovarian, in the experiment with OVCAR-5 ovarian, in the experiment with SW-620 colon, in the experiment on RXF 393 renal and in the experiment on COLO 205 colon was > 100 µM in each case. For the same molecule, the concentration for total growth inhibition (TGI) in the experiment on TK-10 renal, in the experiment on HCT-116 colon and with MOLT-4 leukemia was > 100 µM throughout.
Turning to `COC(=O)C12C3C=CC(O3)C1C1C=CC2O1` (stereo not drawn), the total growth inhibition concentration (TGI) with SK-MEL-2 melanoma, in the experiment on SK-OV-3 ovarian, with OVCAR-5 ovarian, in the experiment with SW-620 colon, in the experiment on RXF 393 renal and in the experiment on COLO 205 colon was > 100 µM each time. Moreover, the TGI with SN12C renal, with TK-10 renal and in the experiment with MOLT-4 leukemia was > 100 µM each time.
Consider `O=c1[nH]cnc2c1nnn2C1C=C(CO)C(O)C1O` (stereo not drawn), for which the total growth inhibition concentration (TGI) in the experiment on SK-MEL-2 melanoma, in the experiment with SK-OV-3 ovarian, with OVCAR-5 ovarian, in the experiment on RXF 393 renal, in the experiment on COLO 205 colon and with SN12C renal was > 100 µM each time. For the same molecule, the TGI with TK-10 renal, in the experiment with HCT-116 colon and with MOLT-4 leukemia was > 100 µM in each case.
Turning to `COC(=O)C1(c2ccc(OC)cc2)NC(c2ccccc2)C2C(=O)N(c3ccc(OC)cc3)C(=O)C21` (stereo not drawn), the TGI in the experiment with SK-MEL-2 melanoma, in the experiment on SK-OV-3 ovarian, in the experiment on OVCAR-5 ovarian, with SW-620 colon, in the experiment on RXF 393 renal and in the experiment on COLO 205 colon was > 100 µM each time. The concentration for total growth inhibition (TGI) in the experiment with SN12C renal, with TK-10 renal and in the experiment with MOLT-4 leukemia was > 100 µM throughout.
In the case of `Cn1cccc1C1CC(=O)N(CCC[Se]C#N)C1=O` (stereo not drawn), the GI50 is 2.13 µM in the experiment on SK-MEL-2 melanoma; 3.22 µM in the experiment on SK-OV-3 ovarian; 2.49 µM with OVCAR-5 ovarian; 3.26 µM in the experiment on SW-620 colon; 1.74 µM in the experiment with RXF 393 renal; 2.1 µM with COLO 205 colon. Besides, the GI50 with TK-10 renal was 1.79 µM; in the experiment on HCT-116 colon it was 2340 nM; in the experiment with MOLT-4 leukemia, 2.16 µM. For the same molecule, the TGI with SK-MEL-2 melanoma was found to be 5.31 µM; in the experiment with SK-OV-3 ovarian, 6.72 µM; in the experiment on OVCAR-5 ovarian, 6.51 µM; in the experiment on SW-620 colon it was 11.8 µM; in the experiment with RXF 393 renal it was 3.43 µM; in the experiment on COLO 205 colon, 4.88 µM. Besides, the results for the TGI with TK-10 renal, in the experiment with HCT-116 colon and with MOLT-4 leukemia were 4.06 µM, 6.27 µM and 7.43 µM, respectively.
Consider `CC1=C(C(=O)Nc2cc(F)c(F)cc2F)C(c2cccc([N+](=O)[O-])c2)C(C(=O)Nc2ccccc2C(F)(F)F)=C(C)N1` (stereo not drawn), for which the TGI in the experiment with SK-MEL-2 melanoma is 42.1 µM; with SK-OV-3 ovarian, 88.9 µM; in the experiment with OVCAR-5 ovarian, 62.1 µM; with SW-620 colon, 87.1 µM; in the experiment with RXF 393 renal, 46.2 µM; in the experiment on COLO 205 colon, > 100 µM. In addition, the results for the TGI in the experiment on SN12C renal, in the experiment with TK-10 renal and in the experiment with MOLT-4 leukemia were 56.5 µM, 71.5 µM and 42 µM, respectively.
Take `N/C(=N\N=C=C1C(=O)Nc2ccc(F)cc21)NO`: the TGI in the experiment on SK-MEL-2 melanoma, in the experiment on SK-OV-3 ovarian, with SW-620 colon, with RXF 393 renal, with COLO 205 colon and in the experiment with SN12C renal was > 100 µM in each case. In addition, the TGI in the experiment with TK-10 renal, with HCT-116 colon and with MOLT-4 leukemia was > 100 µM each time.
As to `COc1ccc(C=O)c(N(C)C(=O)C(C)(C)C)c1`, the TGI in the experiment with SK-MEL-2 melanoma, in the experiment with SK-OV-3 ovarian, in the experiment on SW-620 colon, with RXF 393 renal, in the experiment on COLO 205 colon and in the experiment on SN12C renal was > 100 µM throughout. Besides, the TGI in the experiment on TK-10 renal, in the experiment on HCT-116 colon and in the experiment on MOLT-4 leukemia was > 100 µM in each case.
For the molecule `O=C1/C(=C/c2ccccc2Cl)COc2ccccc21`, the TGI came out at 29 µM in the experiment on SK-MEL-2 melanoma; 72.5 µM with SK-OV-3 ovarian; 32.4 µM with OVCAR-5 ovarian; 20.8 µM with SW-620 colon; 28.9 µM with RXF 393 renal; 40.1 µM in the experiment with COLO 205 colon. For the same molecule, the TGI in the experiment on TK-10 renal is 27.1 µM; in the experiment on HCT-116 colon, 17 µM; in the experiment with MOLT-4 leukemia it was 68.1 µM.

The values are drawn from PubChem BioAssay (NCI).
